We go through two compounds from publication doi:10.1101/2023.10.20.563248v1 (biorxiv, 2023).

The structures appear in SMILES notation.

Assay [1] concerns the target MST2 (full-length, NanoLuc fusion) (Homo sapiens, UniProt Q13188). Put plainly: NanoBRET tracer displacement, HEK293T. The settings on record: intact cells; […] °C, […] h; competitive with tracer. The class given is cell-based. A general note: Bioluminescence resonance energy transfer reports proximity on the nanometre scale.
The target in assay [2] is MST1 (full-length, NanoLuc fusion) (Homo sapiens, UniProt Q13043). The experiment in a line: NanoBRET tracer displacement, HEK293T. The class given is cell-based. The settings on record: intact cells; […] °C, […] h; competitive with tracer.
Assay [3] deals with MST3 (full-length, NanoLuc fusion) (Homo sapiens, UniProt Q9Y6E0). Put plainly: cell-based.
The target in assay [4] is MST4 (full-length, NanoLuc fusion) (Homo sapiens, UniProt Q9P289). The experiment in a line: NanoBRET tracer displacement, HEK293T. The class given is cell-based. The note with it: intact cells; […] °C, […] h; competitive with tracer.
MST4 (full-length, NanoLuc fusion), sequence (Q9P289 whole entry, the tested form may be a part): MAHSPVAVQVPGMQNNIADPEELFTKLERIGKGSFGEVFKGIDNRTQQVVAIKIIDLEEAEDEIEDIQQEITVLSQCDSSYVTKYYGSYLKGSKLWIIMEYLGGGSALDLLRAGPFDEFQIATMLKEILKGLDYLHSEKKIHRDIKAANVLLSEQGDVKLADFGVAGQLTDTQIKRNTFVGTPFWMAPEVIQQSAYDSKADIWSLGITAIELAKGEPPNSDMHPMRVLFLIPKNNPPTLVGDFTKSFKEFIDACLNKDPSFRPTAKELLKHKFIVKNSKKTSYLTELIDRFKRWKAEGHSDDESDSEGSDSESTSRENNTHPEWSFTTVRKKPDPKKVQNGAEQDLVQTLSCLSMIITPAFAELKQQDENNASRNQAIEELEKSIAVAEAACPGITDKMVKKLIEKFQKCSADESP

MST2 (full-length, NanoLuc fusion), sequence (Q13188 whole entry, the tested form may be a part): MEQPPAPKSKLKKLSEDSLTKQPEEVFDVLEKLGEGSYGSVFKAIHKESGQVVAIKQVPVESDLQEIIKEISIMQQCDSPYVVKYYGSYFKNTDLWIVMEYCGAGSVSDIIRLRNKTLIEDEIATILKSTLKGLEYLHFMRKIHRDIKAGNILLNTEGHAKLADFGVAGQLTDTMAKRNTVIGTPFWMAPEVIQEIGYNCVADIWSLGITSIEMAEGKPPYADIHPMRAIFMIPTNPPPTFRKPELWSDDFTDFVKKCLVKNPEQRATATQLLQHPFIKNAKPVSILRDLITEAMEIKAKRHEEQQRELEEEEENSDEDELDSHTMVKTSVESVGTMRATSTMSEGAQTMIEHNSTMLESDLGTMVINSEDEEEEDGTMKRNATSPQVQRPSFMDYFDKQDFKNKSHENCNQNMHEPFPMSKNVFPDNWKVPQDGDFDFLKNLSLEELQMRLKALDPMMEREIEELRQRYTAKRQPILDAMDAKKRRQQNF
MST3 (full-length, NanoLuc fusion), sequence (Q9Y6E0 whole entry, the tested form may be a part): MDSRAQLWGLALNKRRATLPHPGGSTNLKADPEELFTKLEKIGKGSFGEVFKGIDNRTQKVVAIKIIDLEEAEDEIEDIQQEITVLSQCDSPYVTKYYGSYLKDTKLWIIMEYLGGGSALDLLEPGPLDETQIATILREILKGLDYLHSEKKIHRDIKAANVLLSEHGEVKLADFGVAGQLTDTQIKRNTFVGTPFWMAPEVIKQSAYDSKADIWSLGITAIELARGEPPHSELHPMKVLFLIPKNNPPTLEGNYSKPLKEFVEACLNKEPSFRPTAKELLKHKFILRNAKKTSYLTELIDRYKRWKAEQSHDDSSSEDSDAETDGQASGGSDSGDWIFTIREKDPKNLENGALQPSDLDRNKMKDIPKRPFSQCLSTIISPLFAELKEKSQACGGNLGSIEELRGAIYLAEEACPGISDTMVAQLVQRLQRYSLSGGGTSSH
MST1 (full-length, NanoLuc fusion), sequence (Q13043 whole entry, the tested form may be a part): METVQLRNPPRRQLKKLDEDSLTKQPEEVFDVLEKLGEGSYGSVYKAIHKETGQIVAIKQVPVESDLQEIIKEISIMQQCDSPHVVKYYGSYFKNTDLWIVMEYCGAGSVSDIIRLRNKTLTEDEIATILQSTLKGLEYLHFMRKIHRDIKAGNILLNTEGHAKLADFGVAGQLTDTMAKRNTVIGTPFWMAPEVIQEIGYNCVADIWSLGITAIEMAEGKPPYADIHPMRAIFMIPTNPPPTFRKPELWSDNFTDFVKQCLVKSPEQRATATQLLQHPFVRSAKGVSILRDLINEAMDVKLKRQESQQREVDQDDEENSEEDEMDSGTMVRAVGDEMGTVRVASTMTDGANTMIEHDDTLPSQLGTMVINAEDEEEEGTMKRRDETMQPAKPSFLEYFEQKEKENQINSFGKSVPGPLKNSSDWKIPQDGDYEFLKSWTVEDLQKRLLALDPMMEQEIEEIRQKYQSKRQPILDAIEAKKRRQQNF

Consider `N#CCc1ccc(Nc2nccc(Nc3cc(C4CC4)[nH]n3)n2)cc1` [compound 1, 1], for which the EC50 (in general, the concentration that produces a half-maximal response) amounted to 110 nM in assay [1] and 200 nM in assay [2].

In the case of `O=C1NCCCCCCNc2nc(c3ccccc3n2)Nc2cc1[nH]n2` [21e, (Z)-3^1H-2,5,12-triaza-1(4,2)-quinazolina-3(3,5)-pyrazolacyclododecaphan-4-one], the results for the EC50 in assay [3] and in assay [4] were 1800 nM and 2400 nM, respectively.
